Test [1] concerns the target BCL6-NCOR2(SMRT) corepressor protein-protein interaction (Homo sapiens (Human), UniProt P41182). Put plainly: NanoBRET cell assay in transfected HEK293T cells. It is filed as cell-based. The conditions noted are these: HEK293T cells, 6 hr; for IC50: read-out: NanoBRET cell pIC50 (converted). On the technique in general: BRET reads energy transfer from a luciferase to a nearby fluorophore.

Test [2] has as its target human BCL6 BTB domain (Trx-6xHis-BCL6) (Homo sapiens (Human), UniProt P41182). As to the kind of experiment: HTRF in vitro assay (BCL6 BTB domain / BCOR-AF633 peptide). Format: binding. The conditions noted are these: for IC50: read-out: HTRF pIC50 (converted). A general note: In TR-FRET formats the signal depends on donor and acceptor labels being close together.
Procedure: The % inhibition at each concentration was calculated by normalising FRET ratio to the appropriate high (DMSO with all reagents) and low (DMSO without BCL6) controls.
Setting [3] is: further generated data (Table 2b).
Where [4] appears, read: further generated data (Table 1b), 1 nM Trx-6xHis-BCL6, 0.5 nM anti-6xHis-Terbium cryptate.

The structures appear in SMILES notation. Where two headings read alike, the source gives them in different places.

As for `COCC(C)(C)Nc1cc(=O)n(C)c2ccc(Nc3nc(N4CCC(C(=O)N(C)C)CC4)ncc3Cl)cc12` [Example 16d, 1-(5-chloro-4-((4-((1-methoxy-2-methylpropan-2-yl)amino)-1-methyl-2-oxo-1,2-dihydroquinolin-6-yl)amino)pyrimidin-2-yl)-N,N-dimethylpiperidine-4-carboxamide], the IC50 in test [1] (setting [3]) is 9.12 µM. For the same compound, the “HTRF pIC50” value in test [2] (setting [4]) is on record as 6.25.

As for `Cc1cc(C)n(-c2ncc(Cl)c(Nc3ccc4c(c3)c(NC(C)c3ncn(C)n3)cc(=O)n4C)n2)n1` (centres unmarked) [Example 14b, 6-((5-chloro-2-(3,5-dimethyl-1H-pyrazol-1-yl)pyrimidin-4-yl)amino)-1-methyl-4-((1-(1-methyl-1H-1,2,4-triazol-3-yl)ethyl)amino)quinolin-2(1H)-one], the IC50 in test [1] (setting [3]) is 8.32 µM. Further, in test [2] (setting [4]), the “HTRF pIC50” value stood at 6.64.

`COC[C@@H]1CCCN1C(=O)c1cc(Nc2ccc3c(c2)c(N[C@H](C)C2CC2)cc(=O)n3C)c(Cl)cn1` [Example 15a, 6-((5-Chloro-2-((S)-2-(methoxymethyl)pyrrolidine-1-carbonyl)pyridin-4-yl)amino)-4-(((R)-1-cyclopropylethyl)amino)-1-methylquinolin-2(1H)-one]: the IC50 in test [1] (setting [3]) is 2 µM. Moreover, in test [2] (setting [4]), the “HTRF pIC50” value is reported as 6.59.

With `CC(Nc1cc(=O)n(C)c2ccc(Nc3nc(N4CCC(CC(=O)N(C)C)CC4)ncc3Cl)cc12)c1ncccn1` (centres unmarked) [Example 17e, 2-(1-(5-chloro-4-((1-methyl-2-oxo-4-((1-(pyrimidin-2-yl)ethyl)amino)-1,2-dihydroquinolin-6-yl)amino)pyrimidin-2-yl)piperidin-4-yl)-N,N-dimethylacetamide:formic acid (1:1)], the IC50 in test [1] (setting [3]) was 3.47 µM. The “HTRF pIC50” value in test [2] (setting [4]) stood at 6.34.

Consider `CC(Nc1cc(=O)n(CC2CC2)c2ccc(Nc3ccnc(Cl)c3C#N)cc12)c1ncccn1` (centres unmarked) [Example 11h, 2-chloro-4-((1-(cyclopropylmethyl)-2-oxo-4-((1-(pyrimidin-2-yl)ethyl)amino)-1,2-dihydroquinolin-6-yl)amino)nicotinonitrile], for which the IC50 in test [1] (setting [3]) is 2.82 µM. The “HTRF pIC50” value in test [2] (setting [4]) is 6.65.

Turning to `CC(Nc1cc(=O)n(C)c2ccc(Nc3nc(N4CCC(C(=O)N(C)C)CC4)ncc3Cl)cc12)c1ncccn1` (centres unmarked) [Example 17c, 1-(5-chloro-4-((-methyl-2-oxo-4-((1-(pyrimidin-2yl)ethyl)amino)-1,2-dihydroquinolin-6-yl)amino)pyrimidin-2-yl)-N,N-dimethylpiperidine-4-carboxamide], the results for the IC50 in test [1] (setting [3]) and in test [2] (setting [4]) were 3.72 µM and 0.339 µM, respectively.

As to `CC(Nc1cc(=O)n(CC2CC2)c2ccc(Nc3ccnc(Cl)c3Cl)cc12)c1ncccn1` (centres unmarked) [Example 6g, 1-(cyclopropylmethyl)-6-[(2,3-dichloro-4-pyridyl)amino]-4-(1-pyrimidin-2-ylethylamino)quinolin-2-one], the IC50 in test [1] (setting [3]) was 7.41 µM. For the same compound, the “HTRF pIC50” value in test [2] (setting [4]) was 6.25.

For `CC(Nc1cc(=O)n(CC2CCOCC2)c2ccc(Nc3ccnc(Cl)c3C#N)cc12)c1ncccn1` (centres unmarked) [Example 1d, 2-chloro-4-[[2-oxo-4-(1-pyrimidin-2-ylethylamino)-1-(tetrahydropyran-4-ylmethyl)-6-quinolyl]amino]pyridine-3-carbonitrile], the “NanoBRET cell pIC50” value in test [1] (setting [3]) was found to be 5.45. Further, the IC50 in test [1] (initially generated data (Table 2a)) is 3.55 µM. For the same compound, the “HTRF pIC50” value in test [2] (setting [4]) came out at 6.58; in test [2] (initially generated data (Table 1a), 10 nM Trx-6xHis-BCL6, 1 nM anti-6xHis-Terbium cryptate), 6.58.

Regarding `CC(Nc1nc(=O)n(C)c2ccc(Nc3ccnc(Cl)c3Cl)cc12)c1ncccn1` (centres unmarked) [Example 6c, 6-((2,3-dichloropyridin-4-yl)amino)-1-methyl-4-((1-(pyrimidin-2-yl)ethyl)amino)quinazolin-2(1H)-one], the IC50 in test [1] (setting [3]) was 5.5 µM. In addition, the “HTRF pIC50” value in test [2] (setting [4]) worked out at 6.57.

As to `CC(Nc1cc(=O)n(C)c2ccc(Nc3ccnc(Cl)c3C#N)cc12)c1ncc(Br)cn1` (centres unmarked) [Example 10j, 4-((4-((1-(5-bromopyrimidin-2-yl)ethyl)amino)-1-methyl-2-oxo-1,2-dihydroquinolin-6-yl)amino)-2-chloronicotinonitrile], the IC50 in test [1] (setting [3]) was 1.23 µM. The “HTRF pIC50” value in test [2] (setting [4]) is 6.92.

In the case of `CC(Nc1cc(=O)n(CC2CCC2)c2ccc(Nc3ccnc(Cl)c3C#N)cc12)c1ncccn1` (centres unmarked) [Example 11i, 2-chloro-4((1-(cyclobutylmethyl)-2-oxo-4-((1-(pyrimidin-2-yl)ethyl)amino)-1,2-dihydroquinolin-6-yl)amino)nicotinonitrile], the IC50 in test [1] (setting [3]) is 2.09 µM. In addition, the “HTRF pIC50” value in test [2] (setting [4]) was found to be 6.64.

Take `CNC(=O)c1cc(Nc2ccc3c(c2)c(NC(C)(C)COC)cc(=O)n3C)c(C#N)c(Cl)n1` [Example 7d, 6-chloro-5-cyano-4-[[4-[(2-methoxy-1,1-dimethyl-ethyl)amino]-1-methyl-2-oxo-6-quinolyl]amino]-N-methyl-pyridine-2-carboxamide]: the IC50 in test [1] (setting [3]) is 0.977 µM. The “HTRF pIC50” value in test [2] (setting [4]) is given as 6.85.

Consider `CC(Nc1cc(=O)n(C)c2ccc(Nc3ccnc(Cl)c3C#N)cc12)c1ncc(N2C[C@H](C)C[C@H](C)C2)cn1` (stereo partly drawn) [Example 10k, 2-chloro-4-((4-((1-(5-((3R,5S)-3,5-dimethylpiperidin-1-yl)pyrimidin-2-yl)ethyl)amino)-1-methyl-2-oxo-1,2-dihydroquinolin-6-yl)amino)nicotinonitrile], for which, in test [1] (setting [3]), the IC50 is 1.51 µM. For the same compound, in test [2] (setting [4]), the “HTRF pIC50” value came out at 6.82.

Regarding `COCCC1CCCN1C(=O)c1cc(Nc2ccc3c(c2)c(N[C@H](C)C2CC2)cc(=O)n3C)c(Cl)cn1` (some centres unmarked) [Example 15b], in test [1] (setting [3]), the IC50 was 2.19 µM. Moreover, in test [2] (setting [4]), the “HTRF pIC50” value was found to be 6.46.

For `CC(Nc1nc(=O)n(C)c2ccc(Nc3nc(N4CCC(F)(F)CC4)ncc3Cl)cc12)c1ncccn1` (centres unmarked) [Example 12a, 6-((5-Chloro-2-(4,4-difluoropiperidin-1-yl)pyrimidin-4-yl)amino)-1-methyl-4-((1-(pyrimidin-2-yl)ethyl)amino)quinazolin-2(1H)-one], the IC50 in test [1] (setting [3]) is 2.34 µM; in test [2] (setting [4]), 0.191 µM.

For `CC(Nc1cc(=O)n(C)c2ccc(Nc3nc(N4CC(C)(C#N)C4)ncc3Cl)cc12)c1ncccn1` (centres unmarked) [Example 17j, 1-(5-chloro-4-((1-methyl-2-oxo-4-((11-(pyrimidin-2-yl)ethyl)amino)-1,2-dihydroquinoline-6-yl)amino)pyrimidin-2-yl)-3-methylazetidine-3-carbonitrile], the IC50 in test [1] (setting [3]) was 4.9 µM. Also, the “HTRF pIC50” value in test [2] (setting [4]) amounted to 6.18.

Consider `COC1CCC1Nc1cc(=O)n(C)c2ccc(Nc3ccnc(Cl)c3C#N)cc12` (racemic) [Example 22a, rac-2-chloro-4-((4-(((1R,2S)-2-methoxycyclobutyl)amino)-1-methyl-2-oxo-1,2-dihydroquinolin-6-yl)amino)nicotinonitrile or rac-2-chloro-4-((4-(((1R,2R)-2-methoxycyclobutyl)amino)-1-methyl-2-oxo-1,2-dihydroquinolin-6-yl)amino)nicotinonitrile], for which the IC50 in test [1] (setting [3]) is 2.34 µM; in test [2] (setting [4]), 0.251 µM.

As for `CC(Nc1cc(=O)n(C)c2ccc(Nc3cc(C(=O)N4CC(C(F)(F)F)C4)nc(Cl)c3C#N)cc12)c1ncc(C2CC2)cn1` (centres unmarked) [Example 8f, 2-chloro-4-((4-((1-(5-cyclopropylpyrimidin-2-yl)ethyl)amino)-1-methyl-2-oxo-1,2-dihydroquinolin-6-yl)amino)-6-(3-(trifluoromethyl)azetidine-1-carbonyl)nicotinonitrile], the IC50 in test [1] (setting [3]) was 5.25 µM. In test [2] (setting [4]), the “HTRF pIC50” value came to 6.99.

Values taken from patent US11161839B2, “2-quinolone derived inhibitors of BCL6” (Cancer Research Technology Limited, priority 2017, dated 2021).
